Measurements from patent US20240025862A1, “SUBSTITUTED N-PHENYLURACILS AND SALTS THEREOF, AND USE THEREOF AS HERBICIDAL ACTIVE SUBSTANCES” (Bayer Aktiengesellschaft, priority 2020, published 2024).

Tests used:
Type in all cases: in vivo
[1] = tested on: Lolium rigidum (LOLRI); assay: Post-emergence herbicidal action, greenhouse pot test; conditions: Lolium rigidum, 504 h, dosage 20 g/ha, read-out: Post-emergence action against LOLRI in %
How it was run: (§1)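 Greenhouse-grown weeds in sandy loam were sprayed post-emergence at the one-leaf stage, 2–3 weeks after sowing. Compounds were formulated as WP or EC in water with 0.5% additive at 600 l/ha, at rates of 20 g/ha or less. Visual rating after about 3 weeks used a scale from 0% (like untreated control) to 100% (plants dead).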

[2] = tested on: Viola tricolor (VIOTR); assay: as above
How it was run: as §1

[3] = tested on: Amaranthus retroflexus (AMARE); assay: as above; conditions: rated visually after about 3 weeks vs untreated controls, 100% = plants have died
How it was run: as §1

[4] = tested on: Veronica persica (VERPE); assay: as above
How it was run: as §1

[5] = tested on: Polygonum convolvulus (POLCO); assay: as above
How it was run: as §1

[6] = tested on: Pharbitis purpurea (PHBPU); assay: as above
How it was run: as §1

[7] = tested on: Abutilon theophrasti (ABUTH); assay: as above; conditions: rated visually after about 3 weeks vs untreated controls, 100% = plants have died
How it was run: as §1

[8] = tested on: Avena fatua (AVEFA); assay: as above; conditions: rated visually after about 3 weeks vs untreated controls, 100% = plants have died
How it was run: as §1

[9] = tested on: Brassica napus (BRSNW); assay: Post-emergence crop plant compatibility, greenhouse pot test; conditions: for Post-emergence action against BRSNW (crop plant compatibility): vs untreated controls
How it was run: (§2)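 Crop plants grown in sandy loam in the greenhouse were sprayed post-emergence at the one-leaf stage, 2–3 weeks after sowing, with WP or EC formulations as aqueous suspension/emulsion plus 0.5% additive at 600 l/ha. Damage was rated visually about 3 weeks later versus untreated controls (0% = like control, 100% = plants dead).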

[10] = tested on: Setaria viridis (SETVI); assay: Post-emergence herbicidal action, greenhouse pot test (also comparative test C)
How it was run: (§3)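 Green parts of one-leaf-stage plants are sprayed at 600 l/ha with formulated compound plus 0.5% additive, then kept under optimum greenhouse conditions for about 3 weeks. Damage is scored visually, where 100% means dead plants and 0% means no difference from controls.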

[11] = tested on: Matricaria inodora (MATIN); assay: as above
How it was run: as §3

[12] = tested on: Echinochloa crus-galli (ECHCG); assay: as above
How it was run: as §3

[13] = tested on: Alopecurus myosuroides (ALOMY); assay: as above; conditions: rated visually after about 3 weeks vs untreated controls, 100% = plants have died
How it was run: as §3

[14] = tested on: Oryza sativa (ORYSA); assay: Post-emergence crop plant compatibility, greenhouse pot test (also comparative test C); conditions: for Post-emergence action against ORYSA (crop plant compatibility): vs untreated controls
How it was run: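 Rice and other crops sprayed post-emergence at one-leaf stage (2–3 weeks after sowing) with WP or EC formulations plus 0.5% additive at 600 l/ha water. Visual rating about 3 weeks later versus untreated controls (100% = dead, 0% = like control); suffixes a–c denote different doses.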

[15] = tested on: Stellaria media (STEME); assay: Post-emergence herbicidal action, greenhouse pot test
How it was run: as §1

[16] = tested on: Glycine max (GLXMA); assay: Post-emergence crop plant compatibility, greenhouse pot test
How it was run: as §2

[17] = tested on: Zea mays (ZEAMX); assay: as above; conditions: 1.25 g/ha, vs untreated controls
How it was run: as §2

[18] = tested on: Triticum aestivum (TRZAS); assay: as above; conditions: vs untreated controls
How it was run: as §2

Compound: Cn1c(C(F)(F)F)cc(=O)n(-c2cc(Oc3ccccc3OCC(=O)OCC#N)c(Cl)cc2F)c1=O [I.7-176, Cyanomethyl (2-{2-chloro-4-fluoro-5-[3-methyl-2,6-dioxo-4-(trifluoromethyl)-3,6-dihydropyrimidin-1(2H)-yl]phenoxy}phenoxy)acetate]
- pest or weed control at 20 g/ha [1]: 80%
- pest or weed control at 5 g/ha ([2]; Viola tricolor, 504 h, 5 g/ha, read-out: Post-emergence action against VIOTR): 100%
- pest or weed control at 20 g/ha ([2]; Viola tricolor, 504 h, 20 g/ha, read-out: Post-emergence action against VIOTR): 100%
- pest or weed control at 5 g/ha ([3]; Amaranthus retroflexus, 504 h, 5 g/ha, read-out: Post-emergence action at 5 g/ha against AMARE in %): 100%
- pest or weed control at 20 g/ha ([3]; Amaranthus retroflexus, 504 h, 20 g/ha, read-out: Post-emergence action at 20 g/ha against AMARE in %): 100%
- pest or weed control at 5 g/ha ([4]; Veronica persica, 504 h, 5 g/ha, read-out: Post-emergence action against VERPE): 100%
- pest or weed control at 20 g/ha ([4]; Veronica persica, 504 h, 20 g/ha, read-out: Post-emergence action against VERPE): 100%
- pest or weed control at 5 g/ha ([5]; Fallopia convolvulus, 504 h, dosage 5 g/ha, read-out: Post-emergence action against POLCO in %): 100%
- pest or weed control at 20 g/ha ([5]; Fallopia convolvulus, 504 h, dosage 20 g/ha, read-out: Post-emergence action against POLCO in %): 100%
- pest or weed control at 5 g/ha ([6]; Ipomoea purpurea, 504 h, dosage 5 g/ha, read-out: Post-emergence action against PHBPU in %): 100%
- pest or weed control at 20 g/ha ([6]; Ipomoea purpurea, 504 h, dosage 20 g/ha, read-out: Post-emergence action against PHBPU in %): 100%
- pest or weed control at 5 g/ha ([7]; Abutilon theophrasti, 504 h, 5 g/ha, read-out: Post-emergence action at 5 g/ha against ABUTH in %): 100%
- pest or weed control at 20 g/ha ([7]; Abutilon theophrasti, 504 h, 20 g/ha, read-out: Post-emergence action at 20 g/ha against ABUTH in %): 100%
- Post-emergence action at 5 g/ha against AVEFA in % ([8]; 5 g/ha): 80%
- pest or weed control at 20 g/ha ([8]; Avena fatua, 504 h, 20 g/ha, read-out: Post-emergence action at 20 g/ha against AVEFA in %): 100%
- Post-emergence action at 5 g/ha against BRSNW in % ([9]; 5 g/ha, crop plant compatibility, observed effects on crop plant in comparison to untreated controls): 20%
- Post-emergence action against BRSNW (crop plant compatibility) ([9]; 20 g/ha): 20%
- pest or weed control at 20 g/ha ([10]; Setaria viridis, 504 h, 20 g/ha, read-out: Post-emergence action against SETVI): 100%
- pest or weed control at 5 g/ha ([10]; Setaria viridis, 504 h, dosage 5 g/ha, read-out: Post-emergence action against SETVI in %): 100%
- pest or weed control at 5 g/ha ([11]; Tripleurospermum inodorum, 504 h, dosage 5 g/ha, read-out: Post-emergence action against MATIN in %): 90%
- pest or weed control at 20 g/ha ([11]; Tripleurospermum inodorum, 504 h, dosage 20 g/ha, read-out: Post-emergence action against MATIN in %): 100%
- pest or weed control at 5 g/ha ([12]; Echinochloa crus-galli, 504 h, dosage 5 g/ha, read-out: Post-emergence action against ECHCG in %): 100%
- pest or weed control at 20 g/ha ([12]; Echinochloa crus-galli, 504 h, dosage 20 g/ha, read-out: Post-emergence action against ECHCG in %): 100%
- pest or weed control at 5 g/ha ([13]; Alopecurus myosuroides, 504 h, 5 g/ha, read-out: Post-emergence action at 5 g/ha against ALOMY in %): 100%
- pest or weed control at 20 g/ha ([13]; Alopecurus myosuroides, 504 h, 20 g/ha, read-out: Post-emergence action at 20 g/ha against ALOMY in %): 100%

Compound: CC(Oc1ccccc1Sc1cc(-n2c(=O)cc(C(F)(F)F)n(C)c2=O)c(F)cc1Cl)C(=O)OCCO (racemic) [I.2-58]
- Post-emergence action against ORYSA (crop plant compatibility) ([14]; 1.25 g/ha): 10%
- Post-emergence action against ORYSA (crop plant compatibility) ([14]; 5 g/ha): 10%
- Post-emergence action against ORYSA in % ([14]; 20 g/ha, crop plant compatibility): 20%
- Post-emergence action against VIOTR ([2]; 1.25 g/ha): 100%
- Post-emergence action against VIOTR ([2]; 5 g/ha): 100%
- Post-emergence action against VIOTR ([2]; 20 g/ha): 100%
- Post-emergence action at 1.25 g/ha against AMARE in % [3]: 90%
- Post-emergence action at 5 g/ha against AMARE in % ([3]; 5 g/ha): 100%
- Post-emergence action at 20 g/ha against AMARE in % ([3]; 20 g/ha): 100%
- Post-emergence action against VERPE ([4]; 5 g/ha): 80%
- Post-emergence action against VERPE ([4]; 20 g/ha): 100%
- Post-emergence action against POLCO in % ([5]; dosage 1.25 g/ha): 100%
- Post-emergence action against POLCO in % ([5]; dosage 5 g/ha): 100%
- Post-emergence action against POLCO in % ([5]; dosage 20 g/ha): 100%
- Post-emergence action against PHBPU in % ([6]; dosage 5 g/ha): 80%
- Post-emergence action against PHBPU in % ([6]; dosage 20 g/ha): 100%
- Post-emergence action at 1.25 g/ha against ABUTH in % ([7]; 1.25 g/ha): 100%
- Post-emergence action at 5 g/ha against ABUTH in % ([7]; 5 g/ha): 100%
- Post-emergence action at 20 g/ha against ABUTH in % ([7]; 20 g/ha): 100%
- Post-emergence action against STEME ([15]; 5 g/ha): 100%
- Post-emergence action against STEME ([15]; 20 g/ha): 100%
- Post-emergence action against BRSNW (crop plant compatibility) ([9]; 1.25 g/ha): 20%
- Post-emergence action against GLXMA in % ([16]; 1.25 g/ha): 10%
- Post-emergence action against GLXMA in % ([16]; 5 g/ha): 10%
- Post-emergence action against ZEAMX (crop plant compatibility) [17]: 10%
- Post-emergence action against SETVI ([10]; 20 g/ha): 100%
- Post-emergence action against SETVI in % ([10]; dosage 1.25 g/ha): 100%
- Post-emergence action against SETVI in % ([10]; dosage 5 g/ha): 100%
- Post-emergence action against MATIN in % ([11]; dosage 5 g/ha): 80%
- Post-emergence action against MATIN in % ([11]; dosage 20 g/ha): 90%
- Post-emergence action at 20 g/ha against ALOMY in % ([13]; 20 g/ha): 80%

Compound: CC(Oc1ccccc1Sc1cc(-n2c(=O)cc(C(F)(F)F)n(C)c2=O)c(F)cc1Cl)C(=O)OCC1CCOC1 (mixture of isomers) [I.2-72]
- Post-emergence action against ORYSA (crop plant compatibility) ([14]; 1.25 g/ha): 0%
- Post-emergence action against ORYSA (crop plant compatibility) ([14]; 5 g/ha): 20%
- Post-emergence action against VIOTR ([2]; 1.25 g/ha): 100%
- Post-emergence action against VIOTR ([2]; 5 g/ha): 100%
- Post-emergence action against VIOTR ([2]; 20 g/ha): 100%
- Post-emergence action at 1.25 g/ha against AMARE in % [3]: 90%
- Post-emergence action at 5 g/ha against AMARE in % ([3]; 5 g/ha): 100%
- Post-emergence action at 20 g/ha against AMARE in % ([3]; 20 g/ha): 100%
- Post-emergence action against VERPE ([4]; 1.25 g/ha): 100%
- Post-emergence action against VERPE ([4]; 5 g/ha): 100%
- Post-emergence action against VERPE ([4]; 20 g/ha): 100%
- Post-emergence action against POLCO in % ([5]; dosage 5 g/ha): 80%
- Post-emergence action against POLCO in % ([5]; dosage 20 g/ha): 100%
- Post-emergence action against PHBPU in % ([6]; dosage 1.25 g/ha): 100%
- Post-emergence action against PHBPU in % ([6]; dosage 5 g/ha): 100%
- Post-emergence action against PHBPU in % ([6]; dosage 20 g/ha): 100%
- Post-emergence action at 5 g/ha against ABUTH in % ([7]; 5 g/ha): 100%
- Post-emergence action at 20 g/ha against ABUTH in % ([7]; 20 g/ha): 100%
- Post-emergence action against STEME ([15]; 5 g/ha): 100%
- Post-emergence action against STEME ([15]; 20 g/ha): 100%
- Post-emergence action against BRSNW (crop plant compatibility) ([9]; 1.25 g/ha): 10%
- Post-emergence action against GLXMA in % ([16]; 1.25 g/ha): 0%
- Post-emergence action against GLXMA in % ([16]; 5 g/ha): 10%
- Post-emergence action against TRZAS (crop plant compatibility) ([18]; 1.25 g/ha): 20%
- Post-emergence action against TRZAS (crop plant compatibility) ([18]; 5 g/ha): 20%
- Post-emergence action against SETVI ([10]; 20 g/ha): 100%
- Post-emergence action against SETVI in % ([10]; dosage 1.25 g/ha): 90%
- Post-emergence action against SETVI in % ([10]; dosage 5 g/ha): 100%
- Post-emergence action against MATIN in % ([11]; dosage 20 g/ha): 100%
- Post-emergence action against ECHCG in % ([12]; dosage 5 g/ha): 80%
- Post-emergence action against ECHCG in % ([12]; dosage 20 g/ha): 80%
- Post-emergence action at 20 g/ha against ALOMY in % ([13]; 20 g/ha): 90%
